The target in one experiment is KRAS-G12V/RAF1 (Homo sapiens (Human), UniProt P01116, G12V). Briefly: KRAS/RAF1 binding inhibition assay (AlphaScreen). The method, boiled down:
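IC50 comes from variable-slope nonlinear fits of % inhibition (relative to DMSO) against inhibitor concentration. The AlphaScreen signal tracks the interaction of GppNHp-bound KRAS G12V with the RAF1 RBD after 60 min at 4° C with compound in 2% DMSO final.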
(In general: In Alpha technology, singlet oxygen from a donor bead excites a nearby acceptor bead.)

In the next experiment the target is KRAS G12V (Homo sapiens (Human), UniProt P01116, G12V). Briefly: KRAS G12V degradation in SW620 cells (Western blot, DC50). The experiment is classed as cell-based. Conditions: 24 hours. The method, boiled down:
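KRAS levels were quantified by fluorescent Western blot as percent of the DMSO control after 24 h of compound exposure at 37° C in homozygous KRAS G12V SW620 cells. A four-parameter variable-slope fit of the dose-response gave the half-maximal degradation concentration.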
On the technique in general: Immunoblotting shows a protein as a band on a membrane.

Another experiment concerns SW620 cells. As to the kind of experiment: 3D cell growth inhibition of SW620 cells carrying endogenous KRAS G12V mutation (CellTiter-Glo 3D, GI50). The experiment is classed as cell-based. As to conditions: SW620 cells, 6 days, read-out: SW620 3D cell growth GI50. The method, boiled down: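 […], compound exposure lasted 6 days at 37° C, added the day after plating from DMSO stocks over a concentration range. Cells: SW620, KRAS G12V, 3D culture.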

Molecules are shown by their SMILES. Where two headings read alike, the source gives them in different places.

A word on the IC50: it is the concentration that gives 50% inhibition. As usually defined, the DC50 is the concentration giving 50% degradation. A higher DC50 goes with a less potent degrader. What is called GI50 is the concentration giving 50% growth inhibition.

KRAS G12V, sequence (P01116-2 other isoform, or with tags, fused parts or gaps G12V): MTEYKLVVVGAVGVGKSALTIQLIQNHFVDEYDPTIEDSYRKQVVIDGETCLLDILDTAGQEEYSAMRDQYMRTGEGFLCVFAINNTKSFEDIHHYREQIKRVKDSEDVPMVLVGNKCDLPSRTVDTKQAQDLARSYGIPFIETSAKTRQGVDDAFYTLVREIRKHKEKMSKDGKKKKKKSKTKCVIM
KRAS-G12V/RAF1, sequence (P01116-2 other isoform, or with tags, fused parts or gaps G12V): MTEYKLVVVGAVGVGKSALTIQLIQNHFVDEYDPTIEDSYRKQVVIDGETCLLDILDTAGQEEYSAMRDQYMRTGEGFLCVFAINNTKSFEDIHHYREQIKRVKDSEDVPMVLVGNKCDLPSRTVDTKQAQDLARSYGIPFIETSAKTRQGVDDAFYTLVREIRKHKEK

Consider `CCc1c(F)ccc2cc(O)cc(-c3ncc4c(N5CCC[C@@](C)(O)C5)nc(OCC5(CN6CC(N7CC(N8CCN(c9ccc%10c(c9)CN([C@H]9CCC(=O)NC9=O)C%10=O)CC8)C7)C6)CC5)nc4c3F)c12` [Compound 137, (S)-3-(5-(4-(1′-((1-(((7-(8-ethyl-7-fluoro-3-hydroxynaphthalen-1-yl)-8-fluoro-4-((R)-3-hydroxy-3-methylpiperidin-1-yl)pyrido[4,3-d]pyrimidin-2-yl)oxy)methyl)cyclopropyl)methyl)-[1,3′-biazetidin]-3-yl)piperazin-1-yl)-1-oxoisoindolin-2-yl)piperidine-2,6-dione], for which, on KRAS-G12V/RAF1, the IC50 was in the range of 20 to 200 nM. On KRAS G12V, this molecule came in with a DC50 of 1 to 10 nM. Moreover, the GI50 in the experiment with SW620 cells (Homo sapiens, SW-620, 144 h) is less than 10 nM.
In the same order, the values of `CCc1cccc2cc(O)cc(-c3ncc4c(N5CCC[C@@](C)(O)C5)nc(OCC5(CN6CCC7(CC6)CC(N6CCN(c8ccc9c(c8)CN([C@H]8CCC(=O)NC8=O)C9=O)CC6)C7)CC5)nc4c3F)c12` [Compound 138, (3S)-3-[5-[4-[7-[[1-[[7-(8-ethyl-3-hydroxy-1-naphthyl)-8-fluoro-4-[(3R)-3-hydroxy-3-methyl-1-piperidyl]pyrido[4,3-d]pyrimidin-2-yl]oxymethyl]cyclopropyl]methyl]-7-azaspiro[3.5]nonan-2-yl]piperazin-1-yl]-1-oxo-isoindolin-2-yl]piperidine-2,6-dione] are 20 to 200 nM, less than 1 nM and less than 10 nM.
In the same order, the values of `CCc1c(F)ccc2cc(O)cc(-c3ncc4c(N5CCC[C@@](C)(O)C5)nc(OCC5(CN6CC(N7CCC(N8CCN(c9ccc%10c(c9)CN([C@H]9CCC(=O)NC9=O)C%10=O)CC8)CC7)C6)CC5)nc4c3F)c12` [Compound 139, (S)-3-(5-(4-(1-(1-((1-(((7-(8-ethyl-7-fluoro-3-hydroxynaphthalen-1-yl)-8-fluoro-4-((R)-3-hydroxy-3-methylpiperidin-1-yl)pyrido[4,3-d]pyrimidin-2-yl)oxy)methyl)cyclopropyl)methyl)azetidin-3-yl)piperidin-4-yl)piperazin-1-yl)-1-oxoisoindolin-2-yl)piperidine-2,6-dione] are less than 20 nM, less than 1 nM and less than 10 nM.
In the same order, the values of `CCc1cccc2cc(O)cc(-c3ncc4c(N5CCC[C@@](C)(O)C5)nc(OCC5(CN6CCC7(CC6)CCN(c6ccc8c(c6)CN(C6CCC(=O)NC6=O)C8=O)CC7)CC5)nc4c3F)c12` (stereo partly drawn) [Compound 140, 3-(5-(9-((1-(((7-(8-ethyl-3-hydroxynaphthalen-1-yl)-8-fluoro-4-((R)-3-hydroxy-3-methylpiperidin-1-yl)pyrido[4,3-d]pyrimidin-2-yl)oxy)methyl)cyclopropyl)methyl)-3,9-diazaspiro[5.5]undecan-3-yl)-1-oxoisoindolin-2-yl)piperidine-2,6-dione] are 20 to 200 nM, less than 1 nM and less than 10 nM.
`CCc1cccc2cc(O)cc(-c3ncc4c(N5CCC[C@@](C)(O)C5)nc(OCC5(CN6CC7(CCC(N8CCN(c9ccc%10c(c9)CN([C@H]9CCC(=O)NC9=O)C%10=O)CC8)CC7)C6)CC5)nc4c3F)c12` [Compound 141, (S)-3-(5-(4-(2-((1-(((7-(8-ethyl-3-hydroxynaphthalen-1-yl)-8-fluoro-4-((R)-3-hydroxy-3-methylpiperidin-1-yl)pyrido[4,3-d]pyrimidin-2-yl)oxy)methyl)cyclopropyl)methyl)-2-azaspiro[3.5]nonan-7-yl)piperazin-1-yl)-1-oxoisoindolin-2-yl)piperidine-2,6-dione] displayed an IC50 at KRAS-G12V/RAF1 of less than 20 nM. This molecule returned a DC50 on KRAS G12V of more than 100 nM. Besides, in the experiment on SW620 cells (Homo sapiens, SW-620, 144 h), the GI50 was more than 100 nM.
`CCc1cccc2cc(O)cc(-c3ncc4c(N5CCC[C@@](C)(O)C5)nc(OCC5(CN6CC7(CCC(N8CCN(c9ccc%10c(c9)CN([C@H]9CCC(=O)NC9=O)C%10=O)CC8)CC7)C6)CC5)nc4c3F)c12` [Compound 142, (S)-3-(5-(4-(2-((1-(((7-(8-ethyl-3-hydroxynaphthalen-1-yl)-8-fluoro-4-((R)-3-hydroxy-3-methylpiperidin-1-yl)pyrido[4,3-d]pyrimidin-2-yl)oxy)methyl)cyclopropyl)methyl)-2-azaspiro[3.5]nonan-7-yl)piperazin-1-yl)-1-oxoisoindolin-2-yl)piperidine-2,6-dione] had an IC50 on KRAS-G12V/RAF1 of 20 to 200 nM. The molecule also showed a DC50 at KRAS G12V of 1 to 10 nM. For the same molecule, the GI50 in the experiment on SW620 cells is more than 100 nM.
For `CCc1c(F)ccc2cc(O)cc(-c3ncc4c(N5CCC[C@@](C)(O)C5)nc(OCC5(CN6CCC(N7CC8(CCN(c9ccc%10c(c9)CN(C9CCC(=O)NC9=O)C%10=O)CC8)C7)CC6)CC5)nc4c3F)c12` (stereo partly drawn) [Compound 143, 3-(5-(2-(1-((1-(((7-(8-ethyl-7-fluoro-3-hydroxynaphthalen-1-yl)-8-fluoro-4-((R)-3-hydroxy-3-methylpiperidin-1-yl)pyrido[4,3-d]pyrimidin-2-yl)oxy)methyl)cyclopropyl)methyl)piperidin-4-yl)-2,7-diazaspiro[3.5]nonan-7-yl)-1-oxoisoindolin-2-yl)piperidine-2,6-dione], at KRAS-G12V/RAF1, the IC50 is less than 20 nM. Moreover, on KRAS G12V, the DC50 is less than 1 nM. The GI50 in the experiment with SW620 cells (Homo sapiens, SW-620, 144 h) is less than 10 nM.
In the same order, the values of `CCc1c(F)ccc2cc(O)cc(-c3ncc4c(N5CCC[C@@](C)(O)C5)nc(OCC5(CN6CC(N7CC8(CCN(c9ccc%10c(c9)CN(C9CCC(=O)NC9=O)C%10=O)CC8)C7)C6)CC5)nc4c3F)c12` (stereo partly drawn) [Compound 144, 3-(5-(2-(1-((1-(((7-(8-ethyl-7-fluoro-3-hydroxynaphthalen-1-yl)-8-fluoro-4-((R)-3-hydroxy-3-methylpiperidin-1-yl)pyrido[4,3-d]pyrimidin-2-yl)oxy)methyl)cyclopropyl)methyl)azetidin-3-yl)-2,7-diazaspiro[3.5]nonan-7-yl)-1-oxoisoindolin-2-yl)piperidine-2,6-dione] are less than 20 nM, less than 1 nM and less than 10 nM.
In the same order, the values of `CCc1c(F)ccc2cc(O)cc(-c3ncc4c(N5CCC[C@@](C)(O)C5)nc(OCC5(CN6CCC(N7CCC8(CCN(c9ccc%10c(c9)CN(C9CCC(=O)NC9=O)C%10=O)CC8)CC7)CC6)CC5)nc4c3F)c12` (stereo partly drawn) [Compound 145, 3-(5-(9-(1-((1-(((7-(8-ethyl-7-fluoro-3-hydroxynaphthalen-1-yl)-8-fluoro-4-((R)-3-hydroxy-3-methylpiperidin-1-yl)pyrido[4,3-d]pyrimidin-2-yl)oxy)methyl)cyclopropyl)methyl)piperidin-4-yl)-3,9-diazaspiro[5.5]undecan-3-yl)-1-oxoisoindolin-2-yl)piperidine-2,6-dione] are less than 20 nM, 1 to 10 nM and less than 10 nM.
In the same order, the values of `CCc1c(F)ccc2cc(O)cc(-c3ncc4c(N5CCC[C@@](C)(O)C5)nc(OCC5(CN6CCC(N7CC(N8CCN(c9ccc%10c(c9)CN([C@H]9CCC(=O)NC9=O)C%10=O)CC8)C7)CC6)CC5)nc4c3F)c12` [Compound 146, (S)-3-(5-(4-(1-(1-((1-(((7-(8-ethyl-7-fluoro-3-hydroxynaphthalen-1-yl)-8-fluoro-4-((R)-3-hydroxy-3-methylpiperidin-1-yl)pyrido[4,3-d]pyrimidin-2-yl)oxy)methyl)cyclopropyl)methyl)piperidin-4-yl)azetidin-3-yl)piperazin-1-yl)-1-oxoisoindolin-2-yl)piperidine-2,6-dione] are less than 20 nM, less than 1 nM and less than 10 nM.
The molecule `CCc1c(F)ccc2cc(O)cc(-c3ncc4c(N5CCC[C@@](C)(O)C5)nc(OCC5(CN6CCC(N7CCC(N8CCN(c9ccc%10c(c9)CN([C@H]9CCC(=O)NC9=O)C%10=O)CC8)CC7)CC6)CC5)nc4c3F)c12` [Compound 147, (S)-3-(5-(4-(1′-((1-(((7-(8-ethyl-7-fluoro-3-hydroxynaphthalen-1-yl)-8-fluoro-4-((R)-3-hydroxy-3-methylpiperidin-1-yl)pyrido[4,3-d]pyrimidin-2-yl)oxy)methyl)cyclopropyl)methyl)-[1,4′-bipiperidin]-4-yl)piperazin-1-yl)-1-oxoisoindolin-2-yl)piperidine-2,6-dione] registered an IC50 at KRAS-G12V/RAF1 of less than 20 nM. Besides, the DC50 on KRAS G12V was less than 1 nM. For the same molecule, the GI50 with SW620 cells (Homo sapiens, SW-620, 144 h) was less than 10 nM.
On KRAS-G12V/RAF1, `CCc1c(F)ccc2cc(O)cc(-c3ncc4c(N5CCC[C@@](C)(O)C5)nc(OCC5(CN6CCC(CN7CCC(N8CCN(c9ccc%10c(c9)CN([C@H]9CCC(=O)NC9=O)C%10=O)CC8)CC7)CC6)CC5)nc4c3F)c12` [Compound 148, (S)-3-(5-(4-(1-((1-((1-(((7-(8-ethyl-7-fluoro-3-hydroxynaphthalen-1-yl)-8-fluoro-4-((R)-3-hydroxy-3-methylpiperidin-1-yl)pyrido[4,3-d]pyrimidin-2-yl)oxy)methyl)cyclopropyl)methyl)piperidin-4-yl)methyl)piperidin-4-yl)piperazin-1-yl)-1-oxoisoindolin-2-yl)piperidine-2,6-dione] had an IC50 of less than 20 nM. Further, at KRAS G12V, the DC50 is less than 1 nM. Also, the GI50 in the experiment with SW620 cells (Homo sapiens, SW-620, 144 h) is less than 10 nM.
